In US12162855B2, “Tetrahydroquinolino derivatives for the treatment of metastatic and chemoresistant cancers” (THE TRUSTEES OF PRINCETON UNIVERSITY, priority 2018, dated 2024):
Read-outs that look alike come from different tables or passages of the source.

Experiments:
SUM159-M1a cells = assay: Lung metastasis xenograft, SUM159-M1a cells by tail vein injection, BLI; format: in vivo, mouse; conditions: MBE1 IP in conjunction with paclitaxel, tail vein injection model
Description: All xenograft experiments were conducted on 8-week old female mice (athymic Nu/Nu, or NOD/SCID Gamma). Xenograft experiments were conducted using 125,000 SUM159-M1a cells in 100 μL PBS for tail vein or intracardiac injection. Mice were randomized following injection. Bioluminescent imaging (BLI) was conducted using the IVIS 200 system and retroorbital luciferin injection. For drug treatment, MBE1 (prepared as above) was given to mice via IP injection in conjunction with paclitaxel (5 mg/mL in 10% ethanol, 10% Kolliphor EL, 80% PBS) at the time intervals and dosages indicated in FIG. 5A (tail vein injection) and FIG. 6A (intracardiac injection).
FIG. 5B is a line graph of lung metastasis, as measured using bioluminescence imaging (BLI), versus time (days), and compares lung metastasis in the presence and absence of MBE1 in the mice from the experiment outlined in FIG. 5A. FIG. 6B is a line graph of bone metastasis, as measured using BLI, versus time (days), and compares bone metastasis in the presence and absence of MBE1 in the mice from the experiment outlined in FIG. 6A.

ALDH1a3 [1] = molecular target: T1, ALDH1a3 (Homo sapiens, UniProt P47895); assay: ALDEFLUOR assay in SUM159-M1a-Aldh1a3 cells (flow cytometry); format: cell-based; conditions: for Percent of Cells Positive for ALDEFLUOR at 100 nM / inhibition at 0.1 µM: SUM159-M1a-Aldh1a3 cells, compound at 100 nM; for inhibition at 0.1 µM: read-out: Inhibitory Activity at 100 nM (%); for inhibition of ALDH1a3 activity (FIG. 1A): compounds at 100 nM; for lowest concentration at which inhibitory activity detected ([inh-min], FIG. 1B): threshold at lower bound of two standard deviations of control samples
T1 construct: lentiviral vectors containing either the vector backbone or full-length human Aldh1a3; expressed in transfected cells; host or cells: SUM159-M1a (A1) and SUM159 (A7) breast cancer cells, lentiviral pLex vector, puromycin selection
T1 sequence (P47895 1-512): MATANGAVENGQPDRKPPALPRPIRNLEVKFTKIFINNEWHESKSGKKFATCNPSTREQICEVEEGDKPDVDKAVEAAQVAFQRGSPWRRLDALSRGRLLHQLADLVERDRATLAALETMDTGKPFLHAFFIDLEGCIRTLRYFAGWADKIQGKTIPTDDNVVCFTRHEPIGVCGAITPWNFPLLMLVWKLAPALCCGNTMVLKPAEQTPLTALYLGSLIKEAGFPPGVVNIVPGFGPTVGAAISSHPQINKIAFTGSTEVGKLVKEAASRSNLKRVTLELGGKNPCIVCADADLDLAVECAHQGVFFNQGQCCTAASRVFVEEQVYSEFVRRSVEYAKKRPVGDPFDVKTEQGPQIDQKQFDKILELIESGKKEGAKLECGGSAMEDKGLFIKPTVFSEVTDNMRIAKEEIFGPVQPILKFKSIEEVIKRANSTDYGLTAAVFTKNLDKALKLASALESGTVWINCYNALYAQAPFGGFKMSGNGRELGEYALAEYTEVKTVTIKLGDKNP
Description: (§1) Cells were counted, centrifuged and resuspended at 1,000,000 cells/mL in ALDEFLUOR™ buffer (Stemcell Technologies). ALDEFLUOR™ substrate (Stemcell Technologies, 1:200) and test compound or 1 mM DEAB were added to cell suspension and incubated at 37° C. for 45 minutes with vortexing every 15 minutes. Cells were centrifuged and resuspended in ALDEFLUOR™ buffer with DAPI at 5 μg/mL. Samples were analyzed with the BD LSR2 flow cytometry platform. Gating was performed using DEAB as a negative control.
Gating for background fluorescence was performed using 1 millimolar DEAB as a negative control.
The [inh-min] threshold was set at the lower bound of two standard deviations of control samples, while the IC50 threshold was set at 50% of the average of control samples.
High activity was gated at the 99th percentile of cells at a MBE1.5 concentration of 10 nanomolar. The [inh-min] threshold was set at the lower bound of two standard deviations of control samples.
An ALDEFLUOR™ assay was also used to assess the relative activity of several compounds described herein against SUM159-M1a-Aldh1a3 cells. The activity of several compounds in the assay at a concentration of 100 nM is reported in Table 1, along with the chemical structure and compound name associated with each compound.

ALDH1a3 [2] = molecular target: T1, ALDH1a3; assay: ALDEFLUOR assay in MCF7 cells transduced with human Aldh1a3; format: cell-based
Description: The coding sequences of Aldh1a1, Aldh1a2, Aldh1a3 and Aldh3a1 were cloned from cDNA made from pooled human reference RNA samples. Cloned sequences flanked by Age1 and Xho1 restriction sites were inserted into the pLex lentiviral plasmid. Clones were sequenced and compared against NCBI expressed sequence tags (ESTs) for accuracy. Viral production of each enzyme was performed by transfection into the 293T packaging cell line using PEI along with PsPax2 and VSVG packaging vectors. Viruses were collected and filtered at 0.45 μm, then cells were transduced using polybrene (8 μg/mL) for 12 hours, followed by culture with 1 μg/mL puromycin for the duration of experiments. All viral transduction and selection was performed on a cell population-wide basis.
as §1
ALDH isoforms 1a1, 1a2, 1a3 and 3a1 were expressed in MCF7 or SUM159 cells, which were subsequently used in an ALDEFLUOR™ assay.

SMILES	lung metastasis by BLI (FIG. 5B) (SUM159-M1a cells)	IC50 (ALDH1a3 [1]) [nM]	Percent of Cells Positive for ALDEFLUOR at 100 nM (ALDH1a3 [1]) [%]	inhibition at 0.1 µM (ALDH1a3 [1]) [%]	inhibition of ALDH1a3 activity (FIG. 1A) (ALDH1a3 [1])	lowest concentration at which inhibitory activity detected ([inh-min], FIG. 1B) (ALDH1a3 [1]) [nM]	inhibition of Aldh1a3 activity (FIG. 2A) (ALDH1a3 [2]; MCF7 cells)	IC50 (ALDH1a3 [1]; dose titration, IC50 threshold at 50% of average of control samples, read-out: IC50 (percentage of ALDEFLUOR-positive cells, FIG. 1B)) [nM]	inhibition of highly ALDH1a3-active cells (high ALDH percentage, FIG. 1C) (ALDH1a3 [1]; dose titration, high activity gated at 99th percentile at 10 nanomolar MBE1.5)	isoform specificity, percentage of ALDEFLUOR-positive MCF7 cells (FIG. 13B) (ALDH1a3 [2]; MCF7 cells expressing ALDH 1a1, 1a2, 1a3 or 3a1)
CCc1cnccc1C(=O)Nc1cc2c(cc1F)NC(=O)CC2 [MBE1, 3-ethyl-N-(7-fluoro-2-oxo-1,2,3,4-tetrahydroquinolin-6-yl)isonicotinamide]	effective therapeutic to treat established metastatic disease	8 to 10	0.73	99	high-affinity compounds for the inhibition of ALDH1a3 activity	2	effective at inhibiting Aldh1a3 activity			
CCc1ccccc1C(=O)Nc1cc2c(cc1F)NC(=O)CC2 [MBE1.5, 2-ethyl-N-(7-fluoro-2-oxo-1,2,3,4-tetrahydroquinolin-6-yl)benzamide]			0.03	100	high-affinity compounds for the inhibition of ALDH1a3 activity	2		8 to 10	more adept at inhibiting highly ALDH1a3-active cells than MBE1	specifically inhibits ALDH1a3 at concentrations below 10 μM
